Values after ≈ are worked out from the molar mass of the structure shown.
Columns and labels:
[1] = cited from earlier work; for water solubility: background statement
[2] = system: Taxol resistant cell line; assay: cytopathic effects on Taxol resistant cell line (FIG. 10, 11); type: cell-based; details: 5 microgram/ml Taxol, FIG. 11
Excerpt: FIG. 10A. A taxol resistant cell line without treatment (in vitro) showing aggressive growth. FIG. 10B. The same cell line treated with the hybrid taxol, showing cytopathic effects.

| Structure (SMILES) | water solubility [1] | solubility in DMSO ([1]; DMSO) [mg/mL] | solubility in water ([1]; estimated) [µM] | solubility in ethanol ([1]; ethanol, with warming) [mg/mL] | cytopathic effects at very low concentration [2] |
| --- | --- | --- | --- | --- | --- |
| CC1=C(/C=C/C(C)=C/C=C/C(C)=C/C(=O)O)C(C)(C)CCC1 [All-trans-retinoic acid] | not water-soluble |  |  |  |  |
| C=C(c1ccc(C(=O)O)cc1)c1cc2c(cc1C)C(C)(C)CCC2(C)C [Bexarotene] | poorly soluble in water | 65 (≈ 187 mM) | 10 to 50 | 10 (≈ 28.7 mM) |  |
| CC(=O)O[C@H]1C(=O)[C@@]2(C)[C@H]([C@H](OC(=O)c3ccccc3)[C@]3(O)C[C@H](OC(=O)[C@H](O)[C@@H](NC(=O)c4ccccc4)c4ccccc4)C(C)=C1C3(C)C)[C@]1(OC(C)=O)CO[C@@H]1C[C@@H]2O [Taxol, paclitaxel] | very poorly water-soluble |  |  |  | cytopathic effects are observed |

Source: US9895322B2, “Pharmaceutical compositions for the delivery of substantially water-insoluble drugs” (priority 2012, dated 2018)
